Measurements taken from patent publication US4218566A, “11-(2-Hydroxyethylthio) prostenoic acid E and F series derivatives” (American Cyanamid Company, priority 1978, dated 1980).
Read-outs that look alike come from different tables or passages of the source.

Columns and labels:
Type in all cases: in vivo
[1] = tested on: bronchospasms elicited by 5-hydroxytryptamine; assay: bronchodilator activity, (modified) guinea pig Konzett procedure, 5-hydroxytryptamine-induced bronchospasm; conditions: Cavia porcellus, iv
Experimental: (§1) Bronchodilator activity is determined in guinea pigs against bronchospasms elicited by intravenous injections of 5-hydroxytryptamine, histamine of acetylcholine by the Konzett procedure. [See J. Lulling, P. Lievens, F. El Sayed and J. Prignot, Arzneimittel-Forschung, 18, 995 (1968)].
(§2) In the Table I which follows, bronchodilator activity for representative compounds of this invention against one or more of the three spasmogenic agents is expressed as an ED50 determined from the results obtained with three logarithemic cumulative intravenous doses.
(§3) The compounds dl-methyl ester of 11-deoxy-11α-(2-hydroxyethylthio)-15α-prostaglandin E2 (hereinafter called Compound I) and dl-methyl ester of 11-deoxy-11α-(2-hydroxyethoxy)-15α-prostaglandin E2 (hereinafter called Compound II) were submitted for testing in the modified Konzett procedure [J. Lulling, P. Lievens, F. El Sayed and J. Prignot, Arzneimittel-Forschung, 18, 995 (1968)].
(§4) The Modified Guinea Pig Konzett Assay measures the protective effects of experimental compounds against induced bronchospasms in guinea pigs.
(§5) Guinea pigs of either sex, weighing 300 to 500 g. are anesthetized by intraperitoneal injection of urethane at 1.5 g./kg. and curarized by intravenous injection of gallamine at 4 mg./kg. They are artificially ventilated through a tracheal cannula. Respiratory volume is adjusted according to the weight of the animal and the rate of the pump, in such a way as to obtain an insufflation pressure of 15-30 cm. of water.
(§6) The two jugular veins are catheterized, the first one being used for curarization and administration of the test compounds, the other one is used for the injection of the spasmogenic agent. Injections are made at selected speeds with a perfusion pump. The intratracheal pressure is measured with a transducer connected to the tracheal cannula and recorded on a polygraph.
(§7) Bronchial spasms are produced by intravenous injection of acetylcholine hydrochloride, histamine dihydrochloride or 5-hydroxy-tryptamine creatinine sulfate. The speed of injection of the spasmogenic solution and its concentration are chosen to give a dose (kept constant throughout the test) which is able to produce a consistant increase in the tracheal pressure. The injections are repeated every 5 minutes throughout the entire test by means of a program controlled automatic infusion syringe. When three successive control bronchoconstrictions of similar intensity are obtained, the animal is considered to be ready for the assay and receives the first dose of the test compound approximately two minutes later.
(§8) The compound being tested is suspended in 15% ethanol and injected through the jugular vein. The injection is repeated twice per animal at 15 minute intervals, so that three doses, in logarithmic progression, are assayed. Three spasms are recorded for each dose. The "bronchodilating" activity of each compound is assayed in at least four guinea pigs for each of the three spasmogenic substances. The amplitude of the three spasms (i.e. the difference between the maximum total tracheal pressure during the spasms and the normal insufflation pressure without spasm) following the administration of the drug are expressed in cm. of water.
(§9) When the average percent of variation (treated vs. control) of the first spasm following any dose of the compound reaches at least -50%, a regression line of the percent of variation versus the dose is computed in a semi-logarithmic system. The ED50 (dose producing a -50% variation) is then calculated. The same determination is made for the second and third spasm following the administration of a dose of the test compound if at some dose the variation percent reaches -50%.

[2] = tested on: bronchospasms elicited by histamine; assay: bronchodilator activity, (modified) guinea pig Konzett procedure, histamine-induced bronchospasm; conditions: Cavia porcellus, iv
Experimental: as §1, §2, §3, §4, §5, §6, §7, §8, §9

[3] = tested on: bronchospasms elicited by acetylcholine; assay: bronchodilator activity, (modified) guinea pig Konzett procedure, acetylcholine-induced bronchospasm; conditions: Cavia porcellus, iv
Experimental: as §1, §2, §3, §4, §5, §6, §7, §8, §9

[4] = tested on: bronchospasms; assay: bronchodilator activity overall, guinea pig Konzett assay; conditions: for Potency (Range 0-4): score
Experimental: The natural PGE1, PGE2 and PGE3 compounds are potent in causing multiple biological responses, even at low doses. As a bronchodilator, the natural prostaglandins have an inconveniently short duration of activity.
as §1, §2, §3, §4, §5, §6, §7, §8, §9

[5] = spasm 1, read-out: ED50 vs. 5-Hydroxytryptamine Creatinine Sulfate
[6] = spasm 2, read-out: ED50 vs. 5-Hydroxytryptamine Creatinine Sulfate
[7] = spasm 3, read-out: ED50 vs. 5-Hydroxytryptamine Creatinine Sulfate
[8] = spasm 1, read-out: ED50 vs. Histamine Dihydrochloride
[9] = spasm 2, read-out: ED50 vs. Histamine Dihydrochloride
[10] = spasm 3, read-out: ED50 vs. Histamine Dihydrochloride
[11] = spasm 1, read-out: ED50 vs. Acetylcholine Hydrochloride
[12] = spasm 2, read-out: ED50 vs. Acetylcholine Hydrochloride
[13] = 5-HT, first line of values for the compound, read-out: ED50 5-HT
[14] = histamine, first line of values for the compound, read-out: ED50 HIST.
[15] = histamine, second line of values for the compound, read-out: ED50 HIST.
[16] = acetylcholine, first line of values for the compound, read-out: ED50 ACH.
[17] = acetylcholine, second line of values for the compound, read-out: ED50 ACH.
[18] = 5-HT, second line of values for the compound, read-out: ED50 5-HT
[19] = 5-HT, third line of values for the compound, read-out: ED50 5-HT

Row | Compound | ED50 [1, 5] [mg/kg] | ED50 [1, 6] [mg/kg] | ED50 [1, 7] [mg/kg] | ED50 [2, 8] [mg/kg] | ED50 [2, 9] [mg/kg] | ED50 [2, 10] [mg/kg] | ED50 [3, 11] [mg/kg] | ED50 [3, 12] [mg/kg] | bronchodilator potency of Compound I compared with Compound II, statistical analysis ([4]; Compound I vs Compound II) | ED50 [1, 13] [mg/kg] | ED50 [2, 14] [mg/kg] | ED50 [2, 15] [mg/kg] | ED50 [3, 16] [mg/kg] | ED50 [3, 17] [mg/kg] | Potency (Range 0-4) [4] | ED50 [1, 18] [mg/kg] | ED50 [1, 19] [mg/kg] | ED50 ([2]; histamine, third line of values for the compound, read-out: ED50 HIST.) [mg/kg] | ED50 ([3]; acetylcholine, third line of values for the compound, read-out: ED50 ACH.) [mg/kg]
1 | CCCCC[C@H](O)/C=C/[C@H]1[C@H](SCCO)CC(=O)[C@@H]1C/C=C\CCCC(=O)OC (relative stereo) [Compound I, dl-methyl ester of 11-deoxy-11α-(2-hydroxyethylthio)-15α-prostaglandin E2] | 0.0176 | 0.0629 | 0.153 | 0.0157 | 0.0671 | 0.452 | 0.033 | 0.289 | significantly more potent than Compound II as a bronchodilator | – | – | – | – | – | – | – | – | – | –
2 | CCCCC[C@H](O)/C=C/[C@H]1[C@H](OCCO)CC(=O)[C@@H]1C/C=C\CCCC(=O)OC (relative stereo) [Compound II, dl-methyl ester of 11-deoxy-11α-(2-hydroxyethoxy)-15α-prostaglandin E2, reference compound] | 0.119 | 0.495 | 1.28 | 0.152 | 0.707 | 1.46 | 0.506 | 3.31 | – | – | – | – | – | – | – | – | – | – | –
3 | CCCCC[C@H](O)/C=C/[C@H]1C(SCCO)CC(=O)[C@@H]1C/C=C\CCCC(=O)OC (stereo partly drawn) [Example 223, Methyl Nat. 15α-hydroxy-9-oxo-11α/β(2-hydroxyethylthio)-5-cis,13-trans-prostadienoate] | – | – | – | – | – | – | – | – | – | 0.0088 | 0.00424 | 0.0442 | 0.0275 | 0.391 | 4 | – | – | – | –
4 | CCCCC(C)(O)C/C=C/C1C(SCCO)CC(=O)C1C/C=C\CCCC(=O)O (stereo not drawn) [Example 225, 11α/β-(2-hydroxyethylthio)-16-hydroxy-16-methyl-9-oxo-5-cis,13-trans-prostadienoic acid] | – | – | – | – | – | – | – | – | – | 0.017 | 0.02 | 0.108 | 0.034 | – | 3 | 0.077 | 0.257 | – | –
5 | CCCCC(O)C/C=C/C1C(SCCO)CC(=O)C1CCCCCCC(=O)O (stereo not drawn) [Example 226, 11α/β(2-hydroxyethylthio)-16-hydroxy-9-oxo-13-trans-prostenoic acid] | – | – | – | – | – | – | – | – | – | 0.019 | 0.0195 | 0.15 | 0.053 | – | 3 | 0.082 | 0.288 | – | –
6 | CCCCC[C@H](O)/C=C/[C@H]1C(SCCO)CC(=O)[C@@H]1CCCCCCC(=O)O (stereo partly drawn) [Example 228, Nat. 11α/β-(2-hydroxyethylthio)-15α-hydroxy-9-oxo-13-transprostenoic acid] | – | – | – | – | – | – | – | – | – | 0.0055 | 0.0047 | 0.036 | 0.011 | 0.061 | 4 | 0.034 | 0.078 | 0.071 | 0.221
7 | CCCCC[C@H](O)/C=C/[C@H]1[C@H](SCCO)CC(=O)[C@@H]1C/C=C\CCCC(=O)OC [Methyl Nat.-11α-(2-hydroxyethylthio)-15α-hydroxy-9-oxo-5-cis,13-trans-prostadienoate] | – | – | – | – | – | – | – | – | – | 0.0059 | 0.00487 | – | 0.0111 | – | 4 | 0.035 | – | – | –
8 | CCCCC[C@H](O)/C=C/[C@H]1[C@@H](SCCO)CC(=O)[C@@H]1C/C=C\CCCC(=O)OC [methyl nat.-11β(2-hydroxyethylthio)-15α-hydroxy-9-oxo-5-cis,13-trans prostadienoate] | – | – | – | – | – | – | – | – | – | 0.06 | 0.0455 | – | 0.0628 | 0.671 | 4 | – | – | – | –
